# Data as given in ChEMBL document CHEMBL4376864, “Binding Loop Substitutions in the Cyclic Peptide SFTI-1 Generate Potent and Selective Chymase Inhibitors” (J Med Chem, 2020).
# Bridge positions count the residues as written; N and C are the ends. Square brackets hold non-standard residues; d marks the D form. Peptide text beside a SMILES is read from it. * marks the point of attachment. Phe(4-NO2) = N[C@@H](Cc1ccc([N+](=O)[O-])cc1)C(=O)O; Phe(4-tBu) = CC(C)(C)c1ccc(C[C@H](N)C(=O)O)cc1; Bip = N[C@@H](Cc1ccc(-c2ccccc2)cc1)C(=O)O; pNA = O=[N+]([O-])c1ccc(N*)cc1; Nle = CCCC[C@H](N)C(=O)O
# How the values were obtained:
# Chymase [1] = target: T1, Chymase (Homo sapiens, UniProt P23946); assay: Inhibition of recombinant human chymase expressed in Pichia pastoris X-33 cells using NleTDY-pNA as substrate assessed as cleavage of pNA at pH 7.2 and 298 K by spectrophotometry analysis
# T1 sequence (P23946 whole entry): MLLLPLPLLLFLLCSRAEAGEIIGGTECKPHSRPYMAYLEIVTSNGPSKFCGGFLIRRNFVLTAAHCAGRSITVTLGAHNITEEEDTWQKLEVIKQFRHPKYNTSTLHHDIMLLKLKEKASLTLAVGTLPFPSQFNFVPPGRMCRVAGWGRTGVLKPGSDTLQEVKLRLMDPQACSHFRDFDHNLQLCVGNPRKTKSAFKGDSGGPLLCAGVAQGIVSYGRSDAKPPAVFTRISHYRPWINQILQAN
# Chymase [2] = target: T1, Chymase; assay: Substrate activity at recombinant human chymase expressed in Pichia pastoris X-33 cells assessed as Kcat by spectrophotometry analysis; assay type: ADME
# Chymase [3] = target: T1, Chymase; assay: Substrate activity at recombinant human chymase expressed in Pichia pastoris X-33 cells assessed as ratio of Kcat/Km by spectrophotometry analysis; assay type: ADME
# Chymase [4] = target: T1, Chymase; assay: Substrate activity at recombinant human chymase expressed in Pichia pastoris X-33 cells assessed as Km by spectrophotometry analysis; assay type: ADME
# Cathepsin G = target: T2, Cathepsin G (Homo sapiens, UniProt P08311); assay: Inhibition of human cathepsin G using Suc-AAPF-MCA as substrate at pH 7.2 and 298 K measured every 60 secs for 600 secs
# T2 sequence (P08311 whole entry): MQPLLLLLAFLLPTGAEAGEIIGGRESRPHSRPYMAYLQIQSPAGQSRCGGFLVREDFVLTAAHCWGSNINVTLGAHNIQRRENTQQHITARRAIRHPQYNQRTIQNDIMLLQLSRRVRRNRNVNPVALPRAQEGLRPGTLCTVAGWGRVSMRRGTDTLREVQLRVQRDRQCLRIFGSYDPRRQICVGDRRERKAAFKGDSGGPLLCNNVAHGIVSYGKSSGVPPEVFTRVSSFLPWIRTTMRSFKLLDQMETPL
# Chymotrypsin = Chymotrypsin (Homo sapiens, UniProt Q99895+P17538+P40313+Q6GPI1); assay: Inhibition of human chymotrypsin using Suc-AAPF-MCA as substrate at pH 8 and 298 K measured every 60 secs for 600 secs; assay type: protein assay
# Prothrombin = Prothrombin (Homo sapiens, UniProt P00734); assay: Inhibition of human thrombin using Boc-VPR-MCA as substrate at pH 8 and 298 K measured every 60 secs for 600 secs
# [5] = Inhibition of human cationic trypsin using Boc-VPR-MCA as substrate at pH 8 and 298 K measured every 60 secs for 600 secs
# Coagulation factor XII = target: T3, Coagulation factor XII (Homo sapiens, UniProt P00748); assay: Inhibition of human coagulation factor 12a using Ac-QRFR-pNA as substrate at pH 8 and 298 K measured every 60 secs for 600 secs
# T3 sequence (P00748 whole entry): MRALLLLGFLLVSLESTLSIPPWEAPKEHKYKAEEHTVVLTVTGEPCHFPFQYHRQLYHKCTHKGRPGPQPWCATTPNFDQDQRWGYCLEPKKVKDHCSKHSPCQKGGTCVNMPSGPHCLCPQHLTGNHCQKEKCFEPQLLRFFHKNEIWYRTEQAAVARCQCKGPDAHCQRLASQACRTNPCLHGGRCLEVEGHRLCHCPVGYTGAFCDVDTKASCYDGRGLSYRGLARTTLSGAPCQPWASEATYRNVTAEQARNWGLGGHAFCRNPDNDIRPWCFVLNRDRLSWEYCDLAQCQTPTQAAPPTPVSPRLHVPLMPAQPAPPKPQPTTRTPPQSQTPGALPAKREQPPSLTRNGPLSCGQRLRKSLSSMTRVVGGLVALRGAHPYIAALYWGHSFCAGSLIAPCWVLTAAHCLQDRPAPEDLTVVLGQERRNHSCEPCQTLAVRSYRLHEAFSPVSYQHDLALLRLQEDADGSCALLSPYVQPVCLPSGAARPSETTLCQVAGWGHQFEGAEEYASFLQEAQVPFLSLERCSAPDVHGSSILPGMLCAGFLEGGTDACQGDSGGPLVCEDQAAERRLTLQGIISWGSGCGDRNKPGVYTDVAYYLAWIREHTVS
# Kallikrein-7 = Kallikrein-7 (Homo sapiens, UniProt P49862); assay: Inhibition of recombinant human KLK7 expressed in Pichia pastoris X-33 using KHLY-pNA as substrate at pH 8 and 298 K measured every 60 secs for 600 secs
# Kallikrein-7, sequence (P49862 whole entry): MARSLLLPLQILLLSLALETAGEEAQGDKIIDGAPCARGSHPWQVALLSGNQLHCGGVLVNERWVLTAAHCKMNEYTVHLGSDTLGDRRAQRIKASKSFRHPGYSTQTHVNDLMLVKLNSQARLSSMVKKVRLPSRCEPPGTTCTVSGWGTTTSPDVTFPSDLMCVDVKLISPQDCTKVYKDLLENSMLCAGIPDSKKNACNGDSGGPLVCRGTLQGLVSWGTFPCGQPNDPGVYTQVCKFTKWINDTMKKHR
# Homo sapiens = species: Homo sapiens; assay: Selectivity index, ratio of Ki for human cathepsin G using Suc-AAPF-MCA as substrate to Ki for recombinant human chymase expressed in Pichia pastoris X-33 cells using NleTDY-pNA as substrate
# Neutrophil elastase = target: T4, Neutrophil elastase (Homo sapiens, UniProt P08246); assay: Inhibition of human neutrophil elastase using MeOSuc-AAPV-MCA as substrate at pH 7.2 and 298 K measured every 60 secs for 600 secs
# T4 sequence (P08246 whole entry): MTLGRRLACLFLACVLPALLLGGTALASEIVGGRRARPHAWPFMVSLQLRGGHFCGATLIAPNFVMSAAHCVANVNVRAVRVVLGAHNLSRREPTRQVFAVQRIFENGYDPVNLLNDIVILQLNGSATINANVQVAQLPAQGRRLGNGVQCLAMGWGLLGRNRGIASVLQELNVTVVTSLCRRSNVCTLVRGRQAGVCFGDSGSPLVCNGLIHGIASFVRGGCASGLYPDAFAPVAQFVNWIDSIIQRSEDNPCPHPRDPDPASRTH
structure (smiles),measurement,setting,value
CC[C@H](C)[C@@H]1NC(=O)[C@@H]2CCCN2C(=O)[C@@H]2CCCN2C(=O)[C@H]([C@@H](C)CC)NC(=O)[C@H](CO)NC(=O)[C@H](CCCCN)NC(=O)[C@H]([C@@H](C)O)NC(=O)[C@@H]2CSSC[C@H](NC1=O)C(=O)N[C@@H](Cc1ccccc1)C(=O)N1CCC[C@H]1C(=O)N[C@@H](CC(=O)O)C(=O)NCC(=O)N[C@@H](CCCNC(=N)N)C(=O)N2,IC50,Chymase [1],> 5000 nM
C[C@@H](O)[C@H](NC(=O)[C@@H](N)Cc1ccccc1)C(=O)N[C@@H](CC(=O)O)C(=O)N[C@@H](Cc1ccc(O)cc1)C(=O)Nc1ccc([N+](=O)[O-])cc1 (H-FTDY-pNA),Kcat,Chymase [2],14 s⁻¹
same,Kcat/Km,Chymase [3],3.8 ×10⁴ /M/s
same,Km,Chymase [4],370 µM
C[C@@H](O)[C@H](NC(=O)[C@H](CCC(=O)O)NC(=O)[C@@H](N)CCCNC(=N)N)C(=O)N[C@@H](Cc1ccc(O)cc1)C(=O)Nc1ccc([N+](=O)[O-])cc1 (H-RETY-pNA),Kcat,Chymase [2],13 s⁻¹
same,Kcat/Km,Chymase [3],3.2 ×10⁴ /M/s
same,Km,Chymase [4],410 µM
C[C@@H](O)[C@H](NC(=O)[C@@H](NC(=O)[C@@H](N)CCCNC(=N)N)[C@@H](C)O)C(=O)N[C@@H](Cc1ccc(O)cc1)C(=O)Nc1ccc([N+](=O)[O-])cc1 (H-RTTY-pNA),Kcat,Chymase [2],18 s⁻¹
same,Kcat/Km,Chymase [3],3.4 ×10⁴ /M/s
same,Km,Chymase [4],530 µM
CCCC[C@H](N)C(=O)N[C@H](C(=O)N[C@@H](CC(=O)O)C(=O)N[C@@H](Cc1ccc(O)cc1)C(=O)Nc1ccc([N+](=O)[O-])cc1)[C@@H](C)O (H-[Nle]TDY-pNA),Kcat,Chymase [2],22 s⁻¹
same,Kcat/Km,Chymase [3],4 ×10⁴ /M/s
same,Km,Chymase [4],550 µM
CC[C@H](C)[C@@H]1NC(=O)[C@@H]2CCCN2C(=O)[C@@H]2CCCN2C(=O)[C@H](CCC(=O)O)NC(=O)[C@H](CO)NC(=O)[C@H](Cc2ccc(O)cc2)NC(=O)[C@H](C)NC(=O)[C@@H]2CSSC[C@H](NC1=O)C(=O)N[C@@H](Cc1ccccc1)C(=O)N1CCC[C@H]1C(=O)N[C@@H](CC(=O)O)C(=O)NCC(=O)N[C@@H](Cc1ccccc1)C(=O)N2 (cyclo(AYSEPPICFPDGFC); disulfide 8-14),Ki,Cathepsin G,< 0.1 nM
same,Ki,Chymotrypsin,0.42 nM
CC[C@H](C)[C@@H]1NC(=O)[C@@H]2CCCN2C(=O)[C@@H]2CCCN2C(=O)[C@H](Cc2ccc(-c3ccccc3)cc2)NC(=O)[C@H](CO)NC(=O)[C@H](Cc2ccc(O)cc2)NC(=O)[C@H](C)NC(=O)[C@@H]2CSSC[C@H](NC1=O)C(=O)N[C@@H](Cc1ccccc1)C(=O)N1CCC[C@H]1C(=O)N[C@@H](CC(=O)O)C(=O)NCC(=O)N[C@@H](Cc1ccccc1)C(=O)N2 (cyclo(AYS[Bip]PPICFPDGFC); disulfide 8-14),Ki,Cathepsin G,7.4 nM
same,Ki,Chymotrypsin,1.5 nM
CC[C@H](C)[C@@H]1NC(=O)[C@@H]2CCCN2C(=O)[C@@H]2CCCN2C(=O)[C@H]([C@@H](C)CC)NC(=O)[C@H](CO)NC(=O)[C@H](Cc2ccc(O)cc2)NC(=O)[C@H](CC(=O)O)NC(=O)[C@@H]2CSSC[C@H](NC1=O)C(=O)N[C@@H](Cc1ccccc1)C(=O)N1CCC[C@H]1C(=O)N[C@@H](CC(=O)O)C(=O)NCC(=O)N[C@@H](Cc1ccccc1)C(=O)N2 (cyclo(CDYSIPPICFPDGF); disulfide 1-9),IC50,Chymase [1],> 5000 nM
CCCC[C@@H]1NC(=O)CNC(=O)[C@H](CC(=O)O)NC(=O)[C@@H]2CCCN2C(=O)[C@H](Cc2ccccc2)NC(=O)[C@@H]2CSSC[C@H](NC1=O)C(=O)N[C@@H](CC(=O)O)C(=O)N[C@@H](Cc1ccc(O)cc1)C(=O)N[C@@H](CO)C(=O)N[C@@H]([C@@H](C)CC)C(=O)N1CCC[C@H]1C(=O)N1CCC[C@H]1C(=O)N[C@@H]([C@@H](C)CC)C(=O)N2 (cyclo(CDYSIPPICFPDG[Nle]); disulfide 1-9),IC50,Chymase [1],> 5000 nM
CC[C@H](C)[C@@H]1NC(=O)[C@@H]2CCCN2C(=O)[C@@H]2CCCN2C(=O)[C@H](CCC(=O)O)NC(=O)[C@H](CO)NC(=O)[C@H](Cc2ccc(O)cc2)NC(=O)[C@H](CCC(N)=O)NC(=O)[C@@H]2CSSC[C@H](NC1=O)C(=O)N[C@@H](Cc1ccccc1)C(=O)N1CCC[C@H]1C(=O)N[C@@H](CC(=O)O)C(=O)NCC(=O)N[C@@H](CCCNC(=N)N)C(=O)N2 (cyclo(CFPDGRCQYSEPPI); disulfide 1-7),Ki,Cathepsin G,0.26 nM
same,Ki,Chymotrypsin,150 nM
N=C(N)NCCC[C@@H]1NC(=O)CNC(=O)[C@H](CC(=O)O)NC(=O)[C@@H]2CCCN2C(=O)[C@H](Cc2ccccc2)NC(=O)[C@@H]2CSSC[C@H](NC1=O)C(=O)N[C@@H](CCC(N)=O)C(=O)N[C@@H](Cc1ccc([N+](=O)[O-])cc1)C(=O)N[C@@H](CO)C(=O)N[C@@H](CCC(=O)O)C(=O)N1CCC[C@H]1C(=O)N1CCC[C@H]1C(=O)N[C@@H](CCC(=O)O)C(=O)N2 (cyclo(CFPDGRCQ[Phe(4-NO2)]SEPPE); disulfide 1-7),IC50,Prothrombin,> 10000 nM
same,IC50,[5],> 10000 nM
same,Ki,Cathepsin G,5200 nM
same,IC50,Coagulation factor XII,> 10000 nM
same,Ki,Chymotrypsin,920 nM
same,IC50,Kallikrein-7,> 10000 nM
same,Ratio Ki,Homo sapiens,96
same,Ki,Chymase [1],54 nM
same,IC50,Neutrophil elastase,> 10000 nM
CC(C)(C)c1ccc(C[C@@H]2NC(=O)[C@H](CCC(N)=O)NC(=O)[C@@H]3CSSC[C@H](NC(=O)[C@H](CCC(=O)O)NC(=O)[C@@H]4CCCN4C(=O)[C@@H]4CCCN4C(=O)[C@H](CCC(=O)O)NC(=O)[C@H](CO)NC2=O)C(=O)N[C@@H](Cc2ccccc2)C(=O)N2CCC[C@H]2C(=O)N[C@@H](CC(=O)O)C(=O)NCC(=O)N[C@@H](CCCNC(=N)N)C(=O)N3)cc1 (cyclo(CFPDGRCQ[Phe(4-tBu)]SEPPE); disulfide 1-7),IC50,Chymase [1],> 10000 nM
C[C@@H](O)[C@@H]1NC(=O)[C@@H]2CSSC[C@H](NC(=O)[C@H](CCC(=O)O)NC(=O)[C@@H]3CCCN3C(=O)[C@@H]3CCCN3C(=O)[C@H](CCC(=O)O)NC(=O)[C@H](CO)NC(=O)[C@H](Cc3ccc(O)cc3)NC1=O)C(=O)N[C@@H](Cc1ccccc1)C(=O)N1CCC[C@H]1C(=O)N[C@@H](CC(=O)O)C(=O)NCC(=O)N[C@@H](CCCNC(=N)N)C(=O)N2 (cyclo(CFPDGRCTYSEPPE); disulfide 1-7),Ki,Cathepsin G,14 nM
same,Ki,Chymotrypsin,11 nM
CC[C@H](C)[C@@H]1NC(=O)[C@@H]2CCCN2C(=O)[C@@H]2CCCN2C(=O)[C@H](CCC(=O)O)NC(=O)[C@H](CO)NC(=O)[C@H](Cc2ccc(O)cc2)NC(=O)[C@H]([C@@H](C)O)NC(=O)[C@@H]2CSSC[C@H](NC1=O)C(=O)N[C@@H](Cc1ccccc1)C(=O)N1CCC[C@H]1C(=O)N[C@@H](CC(=O)O)C(=O)NCC(=O)N[C@@H](CCCNC(=N)N)C(=O)N2 (cyclo(CFPDGRCTYSEPPI); disulfide 1-7),Ki,Cathepsin G,8.2 nM
same,Ki,Chymotrypsin,0.88 nM
